Results from ChEMBL document CHEMBL1151717, “In vivo active aldosterone synthase inhibitors with improved selectivity: lead optimization providing a series of pyridine substituted 3,4-dihydro-1H-quinolin-2-one derivatives” (J Med Chem, 2008).

Columns and labels:
CYP1A2 = target: T1, CYP1A2 (Homo sapiens, UniProt P05177); test: Inhibition of human recombinant CYP1A2 expressed in baculovirus-infected insect microsomes at 2 uM; assay type: ADME, Microsome
T1 sequence (P05177 whole entry): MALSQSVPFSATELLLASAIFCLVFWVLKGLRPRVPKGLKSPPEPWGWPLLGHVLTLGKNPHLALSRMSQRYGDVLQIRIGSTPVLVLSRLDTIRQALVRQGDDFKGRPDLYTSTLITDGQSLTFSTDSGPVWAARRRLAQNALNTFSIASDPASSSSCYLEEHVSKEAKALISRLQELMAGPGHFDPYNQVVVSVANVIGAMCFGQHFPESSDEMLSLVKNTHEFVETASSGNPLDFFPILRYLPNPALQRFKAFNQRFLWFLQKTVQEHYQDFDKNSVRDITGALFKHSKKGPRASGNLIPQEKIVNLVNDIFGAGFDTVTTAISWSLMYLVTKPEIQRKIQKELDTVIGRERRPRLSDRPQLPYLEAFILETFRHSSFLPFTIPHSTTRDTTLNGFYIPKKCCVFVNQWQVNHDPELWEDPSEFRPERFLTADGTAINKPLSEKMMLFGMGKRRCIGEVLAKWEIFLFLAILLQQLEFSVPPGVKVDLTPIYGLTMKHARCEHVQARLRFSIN

CYP17 = target: T2, CYP17 (Homo sapiens, UniProt P05093); test: in vitro; details: human CYP17 expressed in Escherichia coli
T2 sequence (P05093 whole entry): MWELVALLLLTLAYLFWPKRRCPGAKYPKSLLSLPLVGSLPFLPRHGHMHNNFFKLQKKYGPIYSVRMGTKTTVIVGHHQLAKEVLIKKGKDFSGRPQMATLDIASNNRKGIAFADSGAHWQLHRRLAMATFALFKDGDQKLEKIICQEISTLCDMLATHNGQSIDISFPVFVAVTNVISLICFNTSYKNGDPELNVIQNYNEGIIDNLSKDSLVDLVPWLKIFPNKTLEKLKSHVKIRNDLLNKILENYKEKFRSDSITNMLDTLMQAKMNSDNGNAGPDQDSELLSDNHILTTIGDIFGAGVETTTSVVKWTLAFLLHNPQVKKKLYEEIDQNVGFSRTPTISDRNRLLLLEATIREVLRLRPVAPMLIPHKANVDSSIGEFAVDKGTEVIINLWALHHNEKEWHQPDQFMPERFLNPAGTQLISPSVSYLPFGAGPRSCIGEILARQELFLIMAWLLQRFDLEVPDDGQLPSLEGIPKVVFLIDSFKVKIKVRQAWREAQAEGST
Description: Inhibition of human CYP17 expressed in Escherichia coli at 2.5 uM

[1] = target: T3, Cytochrome P450 11B1, mitochondrial (Homo sapiens, UniProt P15538)
T3 sequence (P15538 whole entry): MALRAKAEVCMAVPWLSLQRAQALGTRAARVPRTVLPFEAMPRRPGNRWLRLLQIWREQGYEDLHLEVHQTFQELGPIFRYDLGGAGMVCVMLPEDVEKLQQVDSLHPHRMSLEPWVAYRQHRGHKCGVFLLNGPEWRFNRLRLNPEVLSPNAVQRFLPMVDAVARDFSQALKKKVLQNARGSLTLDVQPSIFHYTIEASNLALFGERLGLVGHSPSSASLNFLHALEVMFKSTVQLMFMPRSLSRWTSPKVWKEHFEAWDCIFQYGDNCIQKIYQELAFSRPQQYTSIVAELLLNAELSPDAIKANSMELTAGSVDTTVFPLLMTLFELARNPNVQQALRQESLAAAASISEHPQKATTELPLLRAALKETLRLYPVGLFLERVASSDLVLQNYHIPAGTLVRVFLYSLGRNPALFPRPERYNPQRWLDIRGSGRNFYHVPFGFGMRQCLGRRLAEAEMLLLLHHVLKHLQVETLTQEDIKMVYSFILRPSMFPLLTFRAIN

CYP19 (aromatase) = target: T4, CYP19 (aromatase) (Homo sapiens, UniProt P11511); test: Inhibition of human placental CYP19 at 500 nM; assay type: functional
T4 sequence (P11511 whole entry): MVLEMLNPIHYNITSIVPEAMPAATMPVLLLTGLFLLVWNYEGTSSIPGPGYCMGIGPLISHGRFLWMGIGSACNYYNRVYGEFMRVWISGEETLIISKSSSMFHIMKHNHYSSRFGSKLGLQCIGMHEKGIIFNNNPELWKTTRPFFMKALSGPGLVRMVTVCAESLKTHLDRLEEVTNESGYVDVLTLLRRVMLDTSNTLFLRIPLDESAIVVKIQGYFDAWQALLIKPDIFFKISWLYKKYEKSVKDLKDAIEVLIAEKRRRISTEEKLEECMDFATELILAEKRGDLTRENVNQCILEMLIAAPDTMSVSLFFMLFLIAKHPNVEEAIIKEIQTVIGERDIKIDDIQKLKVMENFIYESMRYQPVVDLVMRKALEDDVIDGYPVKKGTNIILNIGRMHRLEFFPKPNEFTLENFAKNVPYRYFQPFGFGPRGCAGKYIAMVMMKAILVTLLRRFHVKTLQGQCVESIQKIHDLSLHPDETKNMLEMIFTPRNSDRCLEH

[2] = target: T5, Cytochrome P450 11B2, mitochondrial (Homo sapiens, UniProt P19099)
T5 sequence (P19099 whole entry): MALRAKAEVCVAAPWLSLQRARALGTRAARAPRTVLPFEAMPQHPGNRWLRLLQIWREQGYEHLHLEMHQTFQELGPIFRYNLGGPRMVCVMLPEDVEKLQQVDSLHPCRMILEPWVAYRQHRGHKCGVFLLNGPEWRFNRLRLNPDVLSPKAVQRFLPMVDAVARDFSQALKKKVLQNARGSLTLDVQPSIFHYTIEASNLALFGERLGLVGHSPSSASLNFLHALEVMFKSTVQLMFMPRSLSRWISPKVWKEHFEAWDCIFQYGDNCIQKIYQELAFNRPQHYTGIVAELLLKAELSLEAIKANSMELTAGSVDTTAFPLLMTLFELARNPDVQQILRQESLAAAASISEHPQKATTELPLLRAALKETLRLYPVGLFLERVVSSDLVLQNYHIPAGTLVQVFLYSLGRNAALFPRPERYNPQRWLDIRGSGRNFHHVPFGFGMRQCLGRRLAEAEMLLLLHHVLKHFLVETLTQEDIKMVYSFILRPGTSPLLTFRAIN

Cytochrome P450 1A2 = target: T6, Cytochrome P450 1A2 (Homo sapiens, UniProt P05177)
T6 sequence (P05177 whole entry): T1 sequence (P05177 whole entry)

Homo sapiens = species: Homo sapiens; test: Selectivity ratio, IC50 for human CYP11B1 to IC50 for human CYP11B2
[3] = target: T5, Cytochrome P450 11B2, mitochondrial; test: Inhibition of human CYP11B2 expressed in hamster V79 MZh cells at 500 nM; assay type: cell-based; details: V79MZh
[4] = Cmax in Wistar rat at 5 mg/kg, po by cassette dosing; assay type: ADME, organism-based; parameters: dose 5 mg/kg, route oral; details: in vivo
[5] = AUC (0 to infinity) in Wistar rat at 5 mg/kg, po by cassette dosing; assay type: ADME, organism-based; parameters: time infinity, dose 5 mg/kg, route oral; details: plasma
[6] = Terminal half life in Wistar rat at 5 mg/kg, po by cassette dosing; assay type: ADME, organism-based; parameters: dose 5 mg/kg, route oral; details: in vivo, read-out: beta t1/2 (converted)

inhibition at 2 µM (CYP1A2) [%]	inhibition at 2.5 µM (CYP17) [%]	IC50 [1] [nM]	inhibition at 0.5 µM (CYP19 (aromatase)) [%]	IC50 [2] [nM]	IC50 (Cytochrome P450 1A2) [nM]	Ratio IC50 (Homo sapiens)	inhibition at 0.5 µM [3] [%]	Cmax [4] [ng/mL]	AUC(0-inf) [5] [ng·h/mL]	half-life [6] [h]	SMILES
25											O=C1Cc2cc(-c3cccnc3)ccc2N1
36	< 5	5180	63	22	3480						CCN1C(=O)CCc2cc(-c3cccnc3)ccc21
		1980		29		68	82				c1cncc(-c2ccc3c(c2)CCCC3)c1
14	7		17		30600						O=C1CCc2cc(-c3cccnc3)cc(Cl)c2N1
								471	3210	3.2	N#Cc1ccc(C2CCCc3cncn32)cc1 (stereo not given) [FADROZOLE]
99	40										c1cncc(-c2ccc3ccccc3c2)c1
		5970		101		59	71				CN1CCOc2cc(-c3cccnc3)ccc21
		6.9		0.1							CN1C(=O)CCc2cc(-c3cncc4ccccc34)ccc21
90	74	290	< 5	1.6	180	181	97				N#CC1=Cc2ccc(-c3cccnc3)cc2CC1
25	12	339	< 5	2.7	5240	126	91				COc1cncc(-c2ccc3c(c2)CCC(=O)N3)c1
		769		4.2		183	97				S=C1CCc2cc(-c3cccnc3)cc(Cl)c2N1
72					660						N#CC1CCc2cc(-c3cccnc3)ccc2C1 (stereo not given)
		525		12							O=C1CSc2cc(-c3cccnc3)ccc2N1
20	< 5		5		16500						COc1cncc(-c2ccc3c(c2)CCC(=O)N3C)c1
73					620						CCOC1CCc2cc(-c3cccnc3)ccc2C1 (stereo not given)
74	49	4920	23	44	600	112	86				OC1CCc2cc(-c3cccnc3)ccc2C1 (stereo not given)
77	72	580	< 5	3.1	640						S=C1CCc2cc(-c3cccnc3)ccc2N1
